Among the data in ChEMBL document CHEMBL1629566, “Development and qualification of a pharmacodynamic model for the pronounced inoculum effect of ceftazidime against Pseudomonas aeruginosa” (2009) are log10cfu and MIC values, retold here.

Molecules are shown by their SMILES. Converted amounts (≈) assume the structure as drawn.

What all share (format): functional
The test system of assay [1] is Pseudomonas aeruginosa. The experiment in a line: Antimicrobial activity against Pseudomonas aeruginosa PAO1 infected in in vitro pharmacodynamic model assessed as bacterial killing at 4 mg/L after 8 hrs using 10^6 CFU/ml inoculum by time kill study.
Assay [2] deals with Pseudomonas aeruginosa. The experiment in a line: Antimicrobial activity against Pseudomonas aeruginosa PAO1 infected in in vitro pharmacodynamic model assessed as bacterial killing at 4 mg/L after 24 hrs using 10^6 CFU/ml inoculum by time kill study.
The subject of assay [3] is Pseudomonas aeruginosa. The assay can be described thus: Antimicrobial activity against Pseudomonas aeruginosa PAO1.
For assay [4], the system named is Pseudomonas aeruginosa. The assay can be described thus: Antimicrobial activity against Pseudomonas aeruginosa PAO1 infected in in vitro pharmacodynamic model assessed as bacterial killing up to 64 mg/L after 48 hrs using 10^7 CFU/ml inoculum by time kill study.
Assay [5] concerns Pseudomonas aeruginosa. The experiment in a line: Antimicrobial activity against Pseudomonas aeruginosa PAO1 infected in in vitro pharmacodynamic model assessed as bacterial killing at 0 to 128 mg/L using 10^8 CFU/ml inoculum by time kill study.

In the case of `CC(C)(O/N=C(\C(=O)N[C@@H]1C(=O)N2C(C(=O)[O-])=C(C[n+]3ccccc3)CS[C@H]12)c1csc(N)n1)C(=O)O` [CEFTAZIDIME], the log10cfu with Pseudomonas aeruginosa [1] is 3; in the assay with Pseudomonas aeruginosa [2], 3; with Pseudomonas aeruginosa [4], 1.6; with Pseudomonas aeruginosa [5], <0.3. The same compound gave a minimum inhibitory concentration (MIC) with Pseudomonas aeruginosa [3] of 2 µg/mL (≈ 3.66 µM).
